SMILES strings stand for the structures. Values joined by “and” are separate entries in the source; they are usually repeats but may differ in a detail not shown here. Equal entries are not always repeated. Marks after values point to notes of the source that are not given here.

One data set deals with blood cells. Briefly: Effect on blood phase, complete blood count (CBC) analysis. In kind it is in vivo, BAB-C mice. The conditions noted are these: mice, 0.5 mg/kg; for PLT / RBC / WBC: mean±SD. The method, then:
BAB-C mice (6 to 8 weeks old, a half being males and the other half females, weighing about 18 g-25 g, supplier: Beijing Vital River Laboratory Animal Technology Co., Ltd.) were raised for one week and then divided into three groups: normal control group, Romidepsin group, and compound A group. The normal group was injected with the vehicle; the drug group was injected with 0.5 mg/kg of the drug; 24 hours and 48 hours respectively after administration, a complete blood count (CBC) analysis was performed; for all the data, mean±standard deviation (mean±SD) was adopted; T tests were performed between inter-group data.

Data set [1] concerns human prostate cancer cells (PC-3). Briefly: MTT tumor cell growth inhibition, PC-3. In kind it is cell-based. The conditions noted are these: PC-3, MTT, 72 hours, relative IC50. An excerpt: The tetrazolium salt (MTT) reduction method was used to test the activity of the compounds of the present invention. Human breast cancer cells (MDA-MB-231) (CAS cell library; catalog number: TCHu227), human lung cancer cells (A549) (ATCC® Number: CRM-CCL-185™), human colon cancer cells (HCT-116) (CAS cell library; catalog number: TCHu99), acute monocytic leukemia cells (MV4-11) (ATCC® Number: CRL-9591™), tissue cell lymphoma cells (U-937) (CAS cell library; catalog number: TCHu159), human acute promyelocytic leukemia cells (HL-60) (ATCC® Number: CCL-240™), chronic myelogenous leukemia cells (of K562) (CAS cell library; catalog number: TCHu191), human hepatocellular carcinoma cells (BEL-7404) (CAS cell library; catalog number: TCHu64), human pancreatic cancer cells (BxPC3) (ATCC® Number: […])) and human prostate cancer cells (PC-3) (ATCC®Number: […]) were inoculated in 96-well plates, 90 μL/well, with 3000 to 8000 cells in respective well; in the first row of plate, 100 μL/well culture medium was added; the 96-well plate was pre-incubated in an incubator at 37° C., 5% CO2, and 100% relative humidity for 24 hours.
A compound was weighed and configured to a 10 mM/L stock solution, and the compound was diluted three-fold sequentially from the highest concentration of 2 millimoles (mM); 95 μl the corresponding cell medium was added to each well of a V-bottom dispensing plate; 5 μl of the compound on a 200× plate was transferred to a 10× dispensing plate according to the concentration; 5 μl of dimethylsulfoxide (DMSO) was evenly mixed in the corresponding 95 μl cell culture medium as a vehicle control. 10 μl of the compound-medium in each well of the 10× dispensing plate was added to a 96-well plate already plated with cells. […]
After the compound for cells was treated for 72 hours, 20 microliters of 5 mg/ml MTT was added to each well; all the steps need to be aseptic. […] The absorbance at 490 nm was read on a SpectraMax M2e instrument. The compound activity (relative IC50) was calculated using GraphPad Prism software.

For the next data set, the system named is MDA-MB-231 breast cancer. The data set can be described thus: In vivo efficacy study of compound B, xenografted MDA-MB-231 breast cancer. Details: species or system BALB/c nude mice. The following applies: once a week for four weeks. As for the experimental part: Female BALB/C nude mice 6 weeks to 8 weeks old and weighing about 19 g to 29 g were taken and raised for one week (supplier: Beijing Vital River Laboratory Animal Technology Co., Ltd.) MDA-MB-231 (ATCC® Number: HTB-26™) breast cancer cells were cultured in vitro; the culture conditions were: 10% fetal bovine serum was added to an L-15 medium, 37° C., and 0% CO2. Passage was performed twice a week. When the cells were in the exponential growth phase, the cells were collected, counted, and inoculated. […] The cells were suspended in phosphate buffered saline (PBS) and Matrigel (1:1) was added. A total of 50 mice were inoculated. […] The experimental indicator was to examine whether the tumor growth was inhibited, delayed, or subsided. Tumor diameter was measured three times a week with a vernier caliper. The formula for calculating tumor volume is as follows: […] The antitumor efficacy of the compound was evaluated with T/C (%) and of TGI. […] T0 indicates the mean tumor volume of the treatment group at the time of administration by cage; Vi indicates the mean tumor volume of the vehicle group on the same day; V0 indicates the mean tumor volume of the vehicle group at the time of administration by cage. At the end of the experiment, the tumors were stripped, weighed, and photographed.

As to `C/C=C1\NC(=O)[C@H]2CSSCC/C=C/[C@H](CC(=O)N[C@H](C(C)C)C(=O)N2)OC(=O)[C@H](C(C)C)NC1=O` [Romidepsin, reference compound], in the data set on blood cells (24 h after administration), the PLT was 600.56 ± 71.51** 1 × 10*9/L, the RBC was 10.30 ± 0.47 1 × 10*12/L and the WBC is on record as 4.32 ± 2.61** 1 × 10*9/L. In the data set on blood cells (48 h after administration), the PLT is given as 431.31 ± 64.96** 1 × 10*9/L, the RBC is given as 10.23 ± 0.78 1 × 10*12/L and the WBC is given as 6.92 ± 3.29** 1 × 10*9/L. For the same compound, the WBC count decrease in the data set with blood cells (at 24 h, vs normal group) was 75%. For the same compound, the “PLT compared with the normal group” value with blood cells (at 24 h and 48 h) is on record as “significantly decreased”. The “WBC count restored to percent of the normal group” value in the data set with blood cells (at 48 h) is recorded as 40%. Also, in data set [1], it took 7.1 nM to reach half-maximal inhibition (IC50). Besides, the “Day 28 tumor volume” value in the data set with MDA-MB-231 breast cancer (6.6 mg/kg intravenous, mean ± standard error) is 260 mm^3 and 260 ± 103 mm^3. In the data set on MDA-MB-231 breast cancer (day 28, 6.6 mg/kg intravenous), the “T/C (%)” value worked out at 11.4% and the “TGI (%)” value was found to be 88.6%.

For the origin of these results see US20180057530A1, “CYCLIC PEPTIDE COMPOUND, AND PREPARATION AND USE THEREOF” (Zhejiang Hisun Pharmaceutical Co., Ltd., priority 2015, published 2018).
